We go through four substances from patent US12630606B2, “Peptide deficient-MHC class I/chaperone compositions and methods” (priority 2018, dated 2026).

One data set deals with H-2D^d/TAPBPR complex (Mus musculus, UniProt P01900).
The next data set addresses H-2D^d (Mus musculus, UniProt P01900). To be noted: cited from earlier work.
Data set [1] is described as follows: Nano differential scanning fluorimetry (nanoDSF). The class given is physicochemical. Conditions: FIG. 18B. Here is the method:
10 uL of each sample was loaded on the Prometheus NT.48 instrument (NanoTemper) using the high sensitivity capillaries. NanoDSF measurements are performed using a temperature ramp rate of 1° C./min from 25° C. to 95° C. and an LED intensity of 20%. Data is analyzed using the PR Control software (NanoTemper). Melting temperatures (Tm values) correspond to the inflection points of the first derivative of the 330/350 nm fluorescence ratio. Experiments were performed in duplicates and the shaded areas (FIG. 18B) are representative of the error.

A further data set concerns the target H-2L^d/TAPBPR complex (Mus musculus, UniProt P01897). The data set can be described thus: SEC TAPBPR binding with LC-MS peptide occupancy. To be noted: QL9 with 10 mM Gly-Phe dipeptide.

Where no end group is shown, it is not given here.

Chain of H-2L^d/TAPBPR complex (P01897 25-309 limits assumed): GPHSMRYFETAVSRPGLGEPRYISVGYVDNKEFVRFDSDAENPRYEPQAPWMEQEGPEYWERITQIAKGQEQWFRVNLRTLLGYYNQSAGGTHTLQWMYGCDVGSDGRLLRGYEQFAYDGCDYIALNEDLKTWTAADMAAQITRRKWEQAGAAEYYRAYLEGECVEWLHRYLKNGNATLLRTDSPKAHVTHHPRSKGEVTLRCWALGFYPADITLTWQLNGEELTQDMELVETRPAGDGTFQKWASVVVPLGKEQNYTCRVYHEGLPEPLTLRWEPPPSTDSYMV
Chain of H-2L^d/TAPBPR complex (P61769 21-119 partner): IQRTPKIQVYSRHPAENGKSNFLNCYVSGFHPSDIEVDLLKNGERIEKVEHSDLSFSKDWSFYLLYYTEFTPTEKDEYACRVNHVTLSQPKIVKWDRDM
Chain of H-2D^d/TAPBPR complex (P01900 25-311): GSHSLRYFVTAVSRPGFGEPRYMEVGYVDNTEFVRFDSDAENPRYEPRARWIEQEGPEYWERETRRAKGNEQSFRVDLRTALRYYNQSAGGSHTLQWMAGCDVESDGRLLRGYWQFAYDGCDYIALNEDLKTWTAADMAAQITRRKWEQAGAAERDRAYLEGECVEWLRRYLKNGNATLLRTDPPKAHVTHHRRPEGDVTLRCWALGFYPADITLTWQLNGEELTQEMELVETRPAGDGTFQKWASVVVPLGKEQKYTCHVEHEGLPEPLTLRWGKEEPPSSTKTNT
Chain of H-2D^d/TAPBPR complex (P61769 21-119, further chain): as the sequence (P61769 21-119 partner) above
Chain of H-2D^d (P61769 21-119): as the sequence (P61769 21-119 partner) above
Chain of H-2D^d (P01900 25-311): as the sequence (P01900 25-311) above

In the case of GPGRAFVTI [gP18-I10], on H-2D^d/TAPBPR complex, the “peptide occupancy in the presence of TAPBPR” value was “dissociates in the presence of TAPBPR”. For the same substance, on H-2D^d, the “increase in the peptide off-rate relative to full-length P18-I10” value was 100 fold.
With “TAPBPR: TAPasin Binding Protein Related chaperone, recombinant luminal domain”, the “Tm (nanoDSF inflection point)” value in data set [1] was found to be 52.5 °C.
For “_PNVNIHNF (not fully specified (N-terminus); printed as _PNVNIHNF) [gp29]”, the “peptide occupancy in the presence of TAPBPR” value with H-2L^d/TAPBPR complex was “remained bound”.
On the same count and under the same terms, with QLSPFPFDL [QL9, reference compound] the entry was “could obtain empty H-2L^d:TAPBPR complexes”.
